In US4477444A, “Antracycline glycosides, pharmaceutical compositions and method of use” (priority 1981, dated 1984):

Legend:
[1] = test system: Hela cells; assay: Activity on Hela cells cloning efficiency in vitro, treatment for 24 hours; type: cell-based; conditions: for % of controls (Hela cells cloning efficiency): 24 hours; for cytotoxicity relative to daunorubicin and doxorubicin: Hela cells cloning efficiency in vitro
[2] = Activity against P388 ascitic leukemia in mice, i.p. treatment on day 1 after tumor inoculation; type: in vivo; conditions: mouse, in vivo, ip; for MTD: i.p. day 1, P388 leukemia mice, read-out: maximal tolerated dose
Description: (§1) Activity against P388 ascitic leukemia of XOO-0148 and
(§2) Treatment i.p. on day 1 after tumor inoculation
(§3) ^(a) T/C % = median survival time of treated mice/median survival tim

[3] = test system: P388 leukemia; assay: as above; type: in vivo; conditions: for antitumor activity (overall conclusion): conclusion from all studies; for potency relative to the corresponding parent compounds / toxicity relative to the corresponding parent compounds: i.p. day 1, P388 leukemia mice
Description: as §1, §2, §3

[4] = Activity against i.v. inoculated Gross leukemia in mice, i.v. treatment on day 1 after tumor inoculation; type: in vivo; conditions: mouse, in vivo, iv; i.v. day 1, Gross leukemia mice; read-out: maximal tolerated dose
Method: (§4) Compound XOO-0148 was also tested on the i.v. inoculated Gross leukemia. Mice were treated i.v. on day 1.
(§5) Activity against Gross leukemia of XOO-0148
(§6) Treatment i.v. on day 1 after tumor inoculation
as §3

[5] = test system: Gross leukemia; assay: as above; type: in vivo
Method: as §4, §5, §6, §3

[6] = dose 12.5 (dose unit not given)

COc1cccc2c1C(=O)c1c(O)c3c(c(O)c1C2=O)C[C@@](O)(C(C)=O)C[C@@H]3O[C@H]1C[C@H](N)[C@H](O)[C@H](C)O1 [Daunorubicin, daunorubicin, reference compound]
% of controls (Hela cells cloning efficiency) ([1]; dose 6.2 (dose unit not given)): 90,48% | % of controls (Hela cells cloning efficiency) [1, 6]: 44,19% | MTD [2]: 2.9 mg/kg | T/C % (median survival time of treated mice/median survival time of controls x100) ([3]; 2.9 mg/kg i.p. day 1): 155% | Toxicity Death ([3]; 2.9 mg/kg i.p. day 1): 0/10 | T/C % (median survival time of treated mice/median survival time of controls x100) ([3]; 4.4 mg/kg i.p. day 1): 160% | Toxicity Death ([3]; 4.4 mg/kg i.p. day 1): 2/10 | T/C % (median survival time of treated mice/median survival time of controls x100) ([3]; 6.6 mg/kg i.p. day 1): 150% | Toxicity Death ([3]; 6.6 mg/kg i.p. day 1): 5/10 | MTD [4]: 6 mg/kg | T/C % (median survival time of treated mice/median survival time of controls x100) ([5]; 4.6 mg/kg i.v. day 1): 180% | Toxicity Death ([5]; 4.6 mg/kg i.v. day 1): 0/10 | T/C % (median survival time of treated mice/median survival time of controls x100) ([5]; 6 mg/kg i.v. day 1): 250% | Toxicity Death ([5]; 6 mg/kg i.v. day 1): 0/10 | T/C % (median survival time of treated mice/median survival time of controls x100) ([5]; 7.8 mg/kg i.v. day 1): 250% | Toxicity Death ([5]; 7.8 mg/kg i.v. day 1): 3/10

COc1cccc2c1C(=O)c1c(O)c3c(c(O)c1C2=O)C[C@@](O)(C(=O)CO)C[C@@H]3O[C@H]1C[C@H](N)[C@H](O)[C@H](C)O1 [Doxorubicin, doxorubicin, reference compound]
% of controls (Hela cells cloning efficiency) [1, 6]: 63,93% | % of controls (Hela cells cloning efficiency) ([1]; dose 25 (dose unit not given)): 26,22% | MTD [2]: 10 mg/kg | T/C % (median survival time of treated mice/median survival time of controls x100) ([3]; 4.4 mg/kg i.p. day 1): 245% | Toxicity Death ([3]; 4.4 mg/kg i.p. day 1): 0/10 | T/C % (median survival time of treated mice/median survival time of controls x100) ([3]; 6.6 mg/kg i.p. day 1): 255% | Toxicity Death ([3]; 6.6 mg/kg i.p. day 1): 0/10 | T/C % (median survival time of treated mice/median survival time of controls x100) ([3]; 10 mg/kg i.p. day 1): 345% | Toxicity Death ([3]; 10 mg/kg i.p. day 1): 0/10

COc1cccc2c1C(=O)c1c(O)c3c(c(O)c1C2=O)C[C@@](O)(C(C)=O)C[C@@H]3O[C@H]1C[C@@H](N)C[C@H](C)O1 [XOO-0148, 4'-deoxy-3'-epi-daunorubicin]
cytotoxicity relative to daunorubicin and doxorubicin [1]: less cytotoxic than daunorubicin and doxorubicin | % of controls (Hela cells cloning efficiency) ([1]; dose 1.5 (dose unit not given)): 89% | % of controls (Hela cells cloning efficiency) ([1]; dose 3.1 (dose unit not given)): 100% | % of controls (Hela cells cloning efficiency) ([1]; dose 6.2 (dose unit not given)): 98% | % of controls (Hela cells cloning efficiency) [1, 6]: 111% | % of controls (Hela cells cloning efficiency) ([1]; dose 25 (dose unit not given)): 74,95% | % of controls (Hela cells cloning efficiency) ([1]; dose 50 (dose unit not given)): 86% | % of controls (Hela cells cloning efficiency) ([1]; dose 100 (dose unit not given)): 10% | T/C % (median survival time of treated mice/median survival time of controls x100) ([3]; 5.1 mg/kg i.p. day 1): 110% | Toxicity Death ([3]; 5.1 mg/kg i.p. day 1): 0/10 | T/C % (median survival time of treated mice/median survival time of controls x100) ([3]; 9.2 mg/kg i.p. day 1): 120% | Toxicity Death ([3]; 9.2 mg/kg i.p. day 1): 0/10 | T/C % (median survival time of treated mice/median survival time of controls x100) ([3]; 16.6 mg/kg i.p. day 1): 130% | Toxicity Death ([3]; 16.6 mg/kg i.p. day 1): 0/10 | toxicity at the maximal dose tested ([3]; 30 mg/kg i.p.): not toxic | T/C % (median survival time of treated mice/median survival time of controls x100) ([3]; 30 mg/kg i.p. day 1): 145% | Toxicity Death ([3]; 30 mg/kg i.p. day 1): 0/10 | antitumor activity relative to daunorubicin ([3]; 30 mg/kg i.p. vs daunorubicin at 2.9 mg/kg): about as active as daunorubicin | antitumor activity (overall conclusion) [3]: remarkable antitumor activity | potency relative to the corresponding parent compounds [3]: less potent than the corresponding parent compounds | toxicity relative to the corresponding parent compounds [3]: less toxic | MTD [4]: 22.5 mg/kg | T/C % (median survival time of treated mice/median survival time of controls x100) ([5]; 22.5 mg/kg i.v. day 1): 240% | Toxicity Death ([5]; 22.5 mg/kg i.v. day 1): 0/10 | antitumor activity relative to daunorubicin ([5]; 22.5 mg/kg i.v. vs daunorubicin at 6 mg/kg): about as active as daunorubicin | T/C % (median survival time of treated mice/median survival time of controls x100) ([5]; 33.7 mg/kg i.v. day 1): 150% | Toxicity Death ([5]; 33.7 mg/kg i.v. day 1): 6/10 | T/C % (median survival time of treated mice/median survival time of controls x100) ([5]; 50 mg/kg i.v. day 1): 120% | Toxicity Death ([5]; 50 mg/kg i.v. day 1): 10/10 | toxicity relative to daunorubicin ([5]; i.v. day 1, Gross leukemia mice): less toxic than daunorubicin

COc1cccc2c1C(=O)c1c(O)c3c(c(O)c1C2=O)C[C@@](O)(C(=O)CO)C[C@@H]3O[C@H]1C[C@@H](N)C[C@H](C)O1 [XOO-0155, 4'-deoxy-3'-epi-doxorubicin]
cytotoxicity relative to daunorubicin and doxorubicin [1]: less cytotoxic than daunorubicin and doxorubicin | % of controls (Hela cells cloning efficiency) ([1]; dose 100 (dose unit not given)): 12,5% | mortality ([2]; 22.5 mg/kg i.p. day 1, read-out: Toxicity Death): 10% | MTD [2]: 22.5 mg/kg | T/C % (median survival time of treated mice/median survival time of controls x100) ([3]; 15 mg/kg i.p. day 1): 195% | Toxicity Death ([3]; 15 mg/kg i.p. day 1): 0/10 | T/C % (median survival time of treated mice/median survival time of controls x100) ([3]; 22.5 mg/kg i.p. day 1): 235% | antitumor effect relative to doxorubicin ([3]; 22.5 mg/kg i.p. vs doxorubicin at 10 mg/kg): lower than that observed after treatment with doxorubicin | T/C % (median survival time of treated mice/median survival time of controls x100) ([3]; 33.7 mg/kg i.p. day 1): 260% | Toxicity Death ([3]; 33.7 mg/kg i.p. day 1): 4/10 | T/C % (median survival time of treated mice/median survival time of controls x100) ([3]; 50 mg/kg i.p. day 1): 60% | Toxicity Death ([3]; 50 mg/kg i.p. day 1): 8/10 | antitumor activity (overall conclusion) [3]: remarkable antitumor activity | potency relative to the corresponding parent compounds [3]: less potent than the corresponding parent compounds | toxicity relative to the corresponding parent compounds [3]: less toxic | antitumor effect ([3]; maximal tolerated dose 22.5 mg/kg i.p.): remarkable antitumor effect
